# Laboratory results from paper PMC3726599, “A Metabolically-Stabilized Phosphonate Analog of Lysophosphatidic Acid Attenuates Collagen-Induced Arthritis” (PLoS ONE, 2013).
# pIC50: −log10 of the molar value. Like-named read-outs stand apart in the source and are kept apart here.
# Columns and labels:
# [1] = test system: LPA production in whole blood; test: LPA and LPC levels in whole blood ex vivo (HPLC-MS/MS); set-up: species or system mouse
# Procedure: BrP-LPA, LPA species (C14:0, C16:0, C18:0, C18:1 and C20:4) and LPC species (C14:0, C16:0, C18:0, C18:1 and C20:0) were measured in plasma with HPLC-ESI/MS/MS using RSLCnano system (Ultimate 3000) coupled in-line with an LTQ Orbitrap XL mass spectrometer (Thermo Scientific, Waltham, MA, USA). BrP-LPA and lipid (LPA, LPC) extraction from plasma was performed on ice according to the Folch method with minor modifications. Plasma samples (50 ul) were mixed with 950 ul PBS prior to extraction and spiked with the internal standard mix (17:1 LPA/LPC). Samples were extracted under neutral conditions with 4 ml of ice-cold CHCl3/CH3OH (2/1, v/v) followed by 2 ml of PBS-saturated ice-cold CHCl3/CH3OH (2/1, v/v). Each extraction step was followed by a 60 s vortex and a 1 min centrifugation step in a bench-top clinical centrifuge in a cold room at 4°C at 3,000 rpm. The lower chloroform organic phases from both neutral extraction steps were pooled and kept for LPC measurement. The remained aqueous phase was chilled on ice for 10 min and extracted twice with ice-cold acidified with acetic acid CHCl3/CH3OH (2/1, v/v) as above. The lower organic phases were pooled, neutralized to pH 6–7 (checked with pH paper as above) on ice and kept for LPA, BrP-LPA measurements. The kept neutral lower organic phase of neutral extraction and the neutralized acidified lower organic phase were evaporated to dryness. The resulting residues were resuspended in 0.15 ml of isopropanol and after brief vortex mixing the solution was transferred to the auto sampler vial. Recovery of LPA species was between 60% and 95%. Recovery of BrP-LPA was 70% and the recovery of LPC species was between 80% and 100%. The Relative Standard Deviation (RSD) was less than 7% from the plasma fortified with three different concentrations (0.1, 0.5 and 1 μΜ) of LPAs, (0.1, 1 and 10 μΜ) of BrP-LPA and (0.5, 5 and 50 μΜ) of LPCs. Analysis was performed using a Phenomenex (Phenomenex, Torrance, CA, USA) Luna Silica column (2–250 mm, 5 μm particle size) using a binary gradient program consisting of isopropanol:hexane:100 mM NH4CO2H(aq) 58:40:2 (mobile phase A) and isopropanol:hexane:100 mM NH4CO2H(aq) 50:40:10 (mobile phase B). The mobile phase was delivered at a flow rate of 0.3 ml/min and the total run time was 50 min/sample. The analysis was performed with electrospray ionization in negative SIM (Single Ion Monitoring) mode for LPA species and BrP-LPA and in positive mode for LPC species (data dependent MS/MS). The resolution was 100 K providing high accuracy for lysophospholipid measurements. Data were collected and processed with the Xcalibur software (Thermo Scientific). The precursor ion mass was used for the quantification while lipid identity was confirmed by precursor ion fragmentation using collision induced dissociation (CID). The peak area ratios (lipid/internal standard) versus the molar ratios (lipid/internal standard) were plotted and fitted to a linear regression. The linear dynamic range of LPA species and BrP-LPA was between 0.01 μM and 10 μΜ.
# The inhibition model (competitive, noncompetitive, or mixed type inhibition) was evaluated by graphical analysis with Lineweaver–Burk double reciprocal plots (1/[velocity] versus 1/[substrate]) and Cornish-Bowden plot ([substrate]/[velocity] versus [Inhibitor]). These plots were generated by the measurement of ATX activity in the presence of different BrP-LPA concentrations (0–10 μΜ) and increased amounts of 16:0 LPC (100, 200, 400 μΜ). The inhibition constants (Ki) and IC50 values were determined using the mean values obtained from two independent experiments. The relative remaining ATX activity or LPA levels in the presence of the BrP-LPA was expressed as a percentage of the corresponding control value (ATX activity, LPA levels without inhibitor). […]
# [2] = test system: LPA2; details: Ca++ mobilization, RH7777 cells; kind of constant not given; read-out: inhibition of LPA2; cited from earlier work
# [3] = test system: LPA4; details: Ca++ mobilization, CHO cells; kind of constant not given; read-out: inhibition of LPA4; cited from earlier work
# [4] = test system: transformed NIH3T3 cells expressing ras and ATX; set-up: method as in PMID 18454946; details: cited from earlier work
# [5] = test system: orthotopic breast cancer xenograft model; set-up: method as in PMID 19509223; details: in vivo; cited from earlier work
# [6] = test system: human colon cancer cells (HCT-116); set-up: method as in earlier work; details: HCT-116, in vitro; cited from earlier work
structure (smiles),measurement,setting,value
"CCCCCCCCCCCCCCCC(=O)OC[C@@H](O)CC(Br)P(=O)(O)O (stereo partly drawn) [BrP-LPA, 1-bromo-3(S)-hydroxy-4-(palmitoyloxy)butyl-phosphonate]",reduction of 18:0 LPA levels,[1]; BrP-LPA 10 μM,97%
same,reduction of total LPA levels,[1]; BrP-LPA 10 μM,86%
same,pIC50,"[1]; read-out: IC50, production of 16:0 LPA",5.87
same,pIC50,"[1]; read-out: IC50, production of 18:0 LPA",6.52
same,pIC50,"[1]; read-out: IC50, production of 18:1 LPA",5.82
same,pIC50,"[1]; read-out: IC50, production of 20:4 LPA",6.25
same,endogenous LPC levels,[1]; upon addition of BrP-LPA,no significant changes
same,pIC50,[2],5.85
same,pIC50,[3],6.57
same,decrease of chemotaxis,[4],23%
same,tumor regression,[5],cause tumor regression in vivo
same,"proliferation, migration and invasion",[6],"reduce human colon cancer cells (HCT-116) proliferation, migration and invasion in vitro"
